In patent publication US11033599B2, “Pennisetum extract, process for manufacturing the same and uses thereof” (METAL INDUSTRIES RESEARCH & DEVELOPMENT CENTRE, priority 2017, dated 2021):

Test system: ovariectomized SD female rats
Experiment: In vivo anti-osteoporosis assay, digital medical image analysis of femurs (DXA / Micro-CT)
Parameters: species or system rat
Conditions: femur, OVX SD female rats, oral, 3 months, L 50 mg/kg, E2 estrogen 50 μg/kg, mean ± S.E.M., n=6
Protocol: In this example, an in vivo assay for anti-osteoporosis activity of the Pennisetum extract was carried out on ovariectomized SD female rats in an animal feeding experiment mode, and the analysis of the femur bone mineral density and trabecular bone measurement was performed to confirm the pharmacological activity. The experimental method is as follows: (1) Test substance and control substances: The test group (L) uses the Pennisetum alcohol extract prepared in the foregoing Example 1 as the test substance. The blank control group (Control) and the ovariectomized group (OVX) were administered with ethanol as the control substance. The positive control group (E2) was administered with estrogen as the control substance. (2) Test animals: Test animals (including the test group, ovariectomized group and positive control group) were ovariectomized SD female rats, and the test on animals simulating the menopausal mode was started 2 weeks after oophorectomy. The blank control group was SD female rats without oophorectomy (only subjected to sham surgery). (3) Animal feeding management: The feeding environment was temperature 20° C. to 25° C.; humidity 65% to 80%; and lighting time 12 hours (monitoring environment every day). During the acclimation and test period, every 4 female rats were housed in an autoclaved plastic rearing cage (46 cm×25 cm×20 cm). Drinking water was treated with a reverse osmosis pure water machine, and then charged in a high temperature autoclaved plastic bottle to give the test animals for free drinking. (4) Acclimation: Ovariectomized SD female rats delivered by BioLASCO Co., Ltd. were acclimated for one week after entering the laboratory. During this period, clinical symptoms were observed every day, and healthy rats with normal weight gain were confirmed for the test. (5) Administration of test substance and control substances: After one week of acclimation, the experimental rats were orally administered with different doses of Pennisetum alcohol extract, ethanol or estrogen for 3 consecutive months, and then all the experimental rats were fasted one night before sacrifice to simulate the clinically applicable route of administration for the human body. During the 3 consecutive months of testing, according to the weight of the day before the administration, the test group was administered with a solution of the Pennisetum alcohol extract (10 mL/kg), which was prepared by dissolving 50 mg of Pennisetum alcohol extract in 10.0 mL of 10% ethanol; the blank control group and the ovariectomized group were administered with 10% ethanol (10.0 mL/kg); and the positive control group was administered with estrogen, which was dissolved in 10% ethanol (10.0 mL/kg). (6) The animal grouping was performed according to the body weight in an S-type order after the animals gained weight. The bone density (mass/volume) of the appropriate bone was measured by a dual energy X-ray absorptiometer (DXA) or micro-computerized tomography (Micro-CT, μ-CT; also used to measure the trabecular number). During the measurement, the DXA with two different energies was used to scan the inspection site, then the X-rays passing through the tested site was received by a scintillation detector, and then a computer analyzed the data to calculate the bone quality of the tested site. The records of the percentage of bone mass (bone volume/tissue volume), trabecular separation/spacing (Tb.Sp), trabecular number (Tb.N) and bone mineral density (BMD) in each group are shown in Table 5. It is represented by mean±standard error (S.E.M.) (n=6), and a, b, c, and d in the table represent statistical differences between the groups. The experimental data were statistically analyzed by one-way ANOVA. The statistical method of correlation index changes between the groups was statistically analyzed by Duncan test. […]

[1] = listed as positive control group

With estrogen [E2] the “Bone Mineral Density” value was 0.619 mg/cm^2, the “Percentage of Bone Mass (bone volume/tissue volume)” value was 10.512% and the “Trabecular Number (Tb.N)” value was 0.908 ± 1/mm. For the same substance, the “Trabecular Separation/Spacing (Tb.Sp)” value was 1.103 mm, the “Percentage of Bone Mass (bone volume/tissue volume)” value [1] was 10.512±1.071% and the “Trabecular Number (Tb.N)” value [1] was 0.908±0.085 1/mm.
